Measurements reported in patent US20250020635A1, “ASSAY METHODS AND USES THEREOF FOR SCREENING ALZHEIMER'S DISEASE TREATMENT COMPOUNDS” (priority 2023, published 2025).
Read-outs that look alike come from different tables or passages of the source.

Legend:
[1] = tested on: HMC3 cells; assay: Microglial phagocytosis/cell health high-content assay, HMC3 cells; assay type: cell-based; conditions: 24-hr treatment
[2] = target: T1, PLCγ2-HiBit (Homo sapiens, UniProt P16885); assay: Cellular thermal shift assay (SplitLuc CETSA), PLCγ2-HiBit in HMC3 cells; assay type: cell-based; conditions: for PLCγ2-HiBit %, percent luminescence at highest dose compared to control (DMSO): 100 μM; for PLCy2-HiBit % @100: Table 1
T1 construct: expressed in transfected cells; host or cells: HMC3 cells
T1 sequence (P16885 1-1265): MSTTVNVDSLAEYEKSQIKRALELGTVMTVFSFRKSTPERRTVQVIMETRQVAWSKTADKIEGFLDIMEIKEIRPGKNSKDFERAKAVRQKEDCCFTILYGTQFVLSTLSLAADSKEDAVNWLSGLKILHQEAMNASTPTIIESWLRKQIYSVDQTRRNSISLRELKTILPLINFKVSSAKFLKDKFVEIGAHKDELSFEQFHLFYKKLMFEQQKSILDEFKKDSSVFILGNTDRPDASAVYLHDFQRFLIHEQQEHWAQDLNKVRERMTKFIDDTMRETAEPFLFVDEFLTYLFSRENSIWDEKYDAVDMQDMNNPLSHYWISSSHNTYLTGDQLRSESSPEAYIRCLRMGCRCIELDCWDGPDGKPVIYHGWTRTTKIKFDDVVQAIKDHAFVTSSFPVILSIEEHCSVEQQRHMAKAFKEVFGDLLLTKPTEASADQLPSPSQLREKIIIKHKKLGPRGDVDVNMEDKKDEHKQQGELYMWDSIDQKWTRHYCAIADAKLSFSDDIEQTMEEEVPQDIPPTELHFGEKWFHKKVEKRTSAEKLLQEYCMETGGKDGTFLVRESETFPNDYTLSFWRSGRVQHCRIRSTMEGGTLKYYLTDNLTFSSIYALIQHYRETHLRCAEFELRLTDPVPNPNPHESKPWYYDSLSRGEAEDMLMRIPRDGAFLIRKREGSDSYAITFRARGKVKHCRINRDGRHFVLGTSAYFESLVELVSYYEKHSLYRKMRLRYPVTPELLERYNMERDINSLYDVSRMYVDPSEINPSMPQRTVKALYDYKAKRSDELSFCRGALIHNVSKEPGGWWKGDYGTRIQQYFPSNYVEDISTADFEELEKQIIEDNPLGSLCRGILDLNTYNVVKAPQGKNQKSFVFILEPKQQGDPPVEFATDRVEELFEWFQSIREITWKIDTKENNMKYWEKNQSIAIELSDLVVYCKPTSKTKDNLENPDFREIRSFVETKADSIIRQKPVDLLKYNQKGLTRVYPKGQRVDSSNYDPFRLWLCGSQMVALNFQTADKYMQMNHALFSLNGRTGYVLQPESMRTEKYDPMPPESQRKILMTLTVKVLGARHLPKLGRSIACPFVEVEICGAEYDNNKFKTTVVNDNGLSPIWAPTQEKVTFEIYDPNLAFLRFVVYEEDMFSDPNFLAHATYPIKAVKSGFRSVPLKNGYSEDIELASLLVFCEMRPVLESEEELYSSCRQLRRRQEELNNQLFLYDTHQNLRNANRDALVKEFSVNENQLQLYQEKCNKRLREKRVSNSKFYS
Text: These compounds have been evaluated using a wide variety of assay classes namely target engagement utilizing cellular thermal shift assay (CETSA),^34 affinity selection mass spectrometry (ASMS),^35 biochemical activity employing the fluorogenic probe XY-69,^36 and cellular activity testing for phagocytosis. Cellular Thermal Shift Assays (CETSA) assess cellular target engagement by quantifying changes in protein thermal stability upon ligand binding to endogenous proteins in intact cells.^34 For SAR studies, a split Nano Luciferase (SplitLuc CETSA) version of the assay was utilized to provide sufficient throughput.^37,38 HMC3 cells were stably transfected with PLCγ2-HiBit to enable protein expression in a physiologically relevant cellular context. The thermal stability of this HiBit-labeled protein in intact cells was measured in the following two formats. In the initial screen, using 96-well plates, cells were treated with FBS analogs at a single concentration (100 μM) at 37° C. for 60 min and then exposed to a 3-minute isothermal heating step at 45.9° C. (experimentally determined Tm of PLCγ2-HiBit). Luminescence detection was then conducted with the Nano-Glo HiBit Lytic detection kit (Promega, Cat. N3040).^38 Compound treatment was performed in triplicate, and raw signals were normalized to the mean of the controls (in the same plate) as % of control. When the difference in compound-treated cells >control mean+3SD, the compound was considered positive and selected for further testing with dose-response CETSA. In the dose response CETSA, cells were treated with decreasing concentrations from 100 μM with 1:3 serial dilutions to generate an 8-point curve. An AC50 was calculated with the % of control data using a four-parameter logistic curve regression model, and the percent luminescence remaining at the highest concentration is also reported for the compounds when the difference from the DMSO control is greater than 3× the standard deviation (SD). Otherwise, an AC50 was not calculated.

[3] = tested on: HMC3 cells; assay: Microglial phagocytosis/cell health high-content assay, HMC3 cells; assay type: cell-based; conditions: 60 μM, 48 hrs, compared to control
Procedure: (§1) The assay introduced here is a simplified cellular imaging assay without any fixation and washing steps, while producing multiparameter measurements with high capacity using a 384-well plate format. The assay procedures include plating cells on day 1, incubating cell plates overnight before treating cells on day 2, adding pHrodo™-myelin/membrane debris to cell plates on day 3, and 20 hr later, staining cell nuclei with Hoechst-33342 for 30 min before performing high-content imaging on day 4. Three selected parameters are measured from cells: 1) mean total fluorescence intensity per cell of pHrodo™-myelin/membrane debris in phagocytosis vesicles to quantify phagocytosis; 2) cell counts per well to quantify treatment effects on proliferation and cell death; and 3) average nuclear intensity to quantify treatment-induced nuclear changes such as in apoptosis. The assay has been used on HMC3 cells (an immortalized human microglial cell line), BV2 cells (an immortalized mouse microglial cell line), and primary microglia isolated from mouse brains. For initial assay attempts, we recommend using HMC3 cells available from the ATCC.
(§2) All collected raw data are normalized to the untreated control with following formula: % of control=100×(X−Min)/(Max−Min). Factors in the formula are: X is raw data from a treated well, Max is an average measurement from pHrodo™-myelin seeded but untreated wells, and Min is an average measurement from no pHrodo™-myelin untreated wells. Normalized data are used for curve fitting that is done with the variable slope (four parameters) using the Prism software.
(§3) To ensure that the measurements reflect the steady state of compound treatment effects and cell health, the assay was set with a total compound treatment time of 48 hr, including pHrodo™-myelin/membrane debris seeding performed 20-24 hr after compound addition. […] Among many available quantitative measurements from the image analysis, we selected three parameters for the assay:
(§4) 1) The mean total intensity of phagocytosis vesicles/cell—to measure phagocytosis. There are multiple parameters generated from the image analysis, including phagocytosis vesicle area, number, and various fluorescence intensity measurements. Comparing these parameters, the total fluorescence intensity of vesicles/cell is the most sensitive one and was chosen for quantifying phagocytosis.
(§5) 2) The total cell counts—to measure overall cell viability, which is affected by proliferation and cell death. We chose to take 4 images/well (with the 10× objective lens) that cover about 50% of the total area of a well in a 384-well plate to represent cell count of the well.
(§6) 3) The average nuclear intensity—to measure drug-induced apoptosis, with high signal indicating nuclear condescension (a sign of early apoptosis) and low signal indicating DNA degradation (a sign of later apoptosis, when activated caspases digest DNA).
(§7) A phenotypic high-content imaging assay with simultaneous measurements of phagocytosis, cell number, and nuclear intensity was used to assess both cellular pharmacology and cell health. Model cell lines BV2 (immortalized mouse microglia, a gift from Dr. Michelle Block's laboratory at IUSM) and HMC3 (immortalized human microglia, obtained from ATCC, CRL-3304) were used to provide adequate throughput. Cells were cultured in DMEM GlutaMax media (ThermoFisher) containing 10% FBS and Pen-Strep in a 37° C. 5% CO2 incubator, plated in Corning Falcon 384 well Optilux Black and clear bottom plates: 400 cells/45 μl/well (BV2 cells), 600 cells/45 μl/well (HMC3 cells) and 2000 cell/45 μl/well (primary cells), and treated with 10× serially diluted compounds (60 μM-3 nM) for 48 hrs at 37° C. […]

[4] = tested on: BV2 cells; assay: Microglial phagocytosis/cell health high-content assay, BV2 cells; assay type: cell-based; conditions: 60 μM, 48 hrs, compared to control
Procedure: as §1, §2, §3, §4, §5, §6, §7

[5] = tested on: MDCK; assay: MDCK permeability; assay type: in vitro ADME; conditions: estimate of intestinal absorption
Procedure: (§8) Physicochemical and ADME properties were determined using the following assays: microsomal stability intrinsic clearance (Clint) in mouse liver microsomal solution, MDCK permeability (Papp), protein binding (fu) in mouse plasma, and kinetic solubility in pH 7.4 phosphate buffer (Table 7).

[6] = Protein binding in mouse plasma; assay type: in vitro ADME
Procedure: as §8

[7] = Kinetic solubility in pH 7.4 phosphate buffer; assay type: physicochemical
Procedure: as §8

[8] = tested on: HiBit only; assay: Cellular thermal shift assay (CETSA), HiBit only control; assay type: cell-based, human
[9] = Microsomal stability intrinsic clearance; assay type: in vitro ADME; conditions: mouse liver microsomes
Procedure: as §8

[10] = target: T2, His-PLCγ2 protein (Homo sapiens, UniProt P16885); assay: Affinity selection mass spectrometry (ASMS); assay type: binding; conditions: dose range 100-0.05 μM, PLCγ2 400 nM
T2 sequence (P16885 1-1265): T1 sequence (P16885 1-1265)
Procedure: Using a dose range of 100-0.05 μM in 384 well low-volume polypropylene microtiter plates, a solution of PLCγ2 (final concentration 400 nM) was transferred to biochip arrays functionalized with a Tris-Ni-NTA-presenting self-assembled monolayer to immobilize the His-tagged protein. The arrays were incubated for 90 min in a humidified chamber to prevent evaporation and allow for specific immobilization of the His-PLCγ2 protein, along with any bound small molecules. The arrays were purified by a rapid <3 second gentle wash step with deionized ultra-filtered water and dried with compressed air. ASMS was performed using the reflector positive mode on an Aβ Sciex TOF-TOF 5800 System (Aβ Sciex, Framingham, MA).

SMILES	IC50 ([1]; read-out: cell count (inhibition of cell proliferation) IC50) [nM]	EC50 ([1]; read-out: increase of nuclear intensity EC50) [nM]	IC50 ([1]; read-out: inhibition of phagocytosis IC50) [nM]	PLCγ2-HiBit %, percent luminescence at highest dose compared to control (DMSO) [2] [%]	PLCy2-HiBit % @100 [2] [%]	Ave. % Cell Count @ 60 uM HMC3 cells [3] [%]	Ave. % Phagocytosis @ 60 uM HMC3 cells [3] [%]	Ave. % Cell Count @ 60 uM BV2 cells [4] [%]	Ave. % Phagocytosis @ 60 uM BV2 cells [4] [%]	Papp, MDCK permeability [5]	fu, fraction unbound [6]	Kinetic solubility [7] [µM]	HiBit only %, percent luminescence at highest dose with HiBit only compared to control (DMSO) ([8]; 100 μM) [%]	HiBit only % @100 μM ([8]; Table 1, @100 μM) [%]	Clint, intrinsic clearance [9] [µL/min/mg]	target engagement, signal against background [10]
C=C1[C@@H](C)[C@H]2[C@H](Cc3ccccc3)NC(=O)[C@]23[C@H](OC(C)=O)/C=C/[C@@](C)(O)C(=O)[C@@H](C)C/C=C/[C@H]3[C@@H]1O [Cytochalasin D]	367	488	138													
Cc1cc(C)c(S(=O)(=O)Nc2cccc(C#N)c2)c(C)c1 [Compound 3]				96	96	79	111	85	113	69.8 ×10−^6 cm/s	0.0003	81 to 100				
O=S(=O)(Nc1cccc(C(F)(F)F)c1)c1ccccc1 [Compound 4]				65	65	84	89	95	106	79.7 ×10−^6 cm/s		>100	82	82	607.66	
Nc1ncnc2c1ncn2[C@@H]1O[C@H](COP(=O)(O)OP(=O)(O)OP(=O)(O)O)[C@@H](O)[C@H]1O [ATP]																clear separation from background signal
